Measured values taken from patent US20130131018A1, “SUBSTITUTED ISOQUINOLINES AND THEIR USE AS TUBULIN POLYMERIZATION INHIBITORS” (Exonhit S.A., priority 2010, published 2013).
Counter-ions that a name gives are not always drawn.

tested on: K562 cell line; test: MTT assay: cytotoxicity against the K562 cell line; format: cell-based; conditions: Homo sapiens, K562 cells, 72 h, growth inhibition
Description: Assessment of Cell Viability via MTT Assay: Cytotoxicity of compounds against the K562 cell line was assessed using the [3-(4,5-dimethylthiazol-2-yl)-2,5-diphenyl tetrazolium bromide] (MTT) assay. Fifteen thousand tumor cells were seeded into wells of flat-bottomed 96-well plates. An amount of 2 μL of a dilution series of each compound dissolved in DMSO was added to 198 μL of appropriate growth medium at three replicates per concentration and the plates were incubated in a 5% CO2 incubator at 37° C. After 72 h, the number of metabolically active cells was determined by MTT assay. Absorbance of each well was measured at 550 nm on a Tecan Sunrise reader. Dose-response curves for growth inhibition were generated as a percentage of untreated control. IC50 was determined by nonlinear regression (Prism, Graph Pad Software, Inc.).

Which IC50 does the source give for `COc1ccc2c(Cc3cc(OC)c(OC)c(OC)c3)cncc2c1` [Compound 27, 4-(3,4,5-Trimethoxybenzyl)-7-methoxyisoquinoline hydrochloride] here?
The IC50 was 864 nM.

For `CCOc1ccc2c(C(=O)c3cc(OC)c(OC)c(OC)c3)cncc2c1OC(=O)C(C)(C)C` [Compound 109, 7-Ethoxy-4-(3,4,5-trimethoxybenzoyl)isoquinolin-8-yl pivalate], which IC50 is on record?
The IC50 was 67.9 nM.

Which IC50 does the source give for `CCOc1ccc2c(Cc3cc(OC)c(OCC(CC)CC)c(OC)c3)cncc2c1O` [Compound 37, 7-Ethoxy-4-(4-(2-ethylbutoxy)-3,5-dimethoxybenzyl)isoquinolin-8-ol hydrochloride] here?
The IC50 was 899 nM.

For `CCOc1ccc2c(Cc3cc(N)c(OCC)c(OC)c3)cncc2c1O` [Compound 75, 4-(3-Amino-4-ethoxy-5-methoxybenzyl)-7-ethoxyisoquinolin-8-ol hydrochloride], which IC50 is on record?
The IC50 was 236 nM.

With `CCOc1ccc2c(Cc3cc(I)c(OC)c(I)c3)cncc2c1O` [Compound 70, 4-(3,5-Diiodo-4-methoxybenzyl)-7-ethoxyisoquinolin-8-ol hydrochloride] as the compound, how does the IC50 read?
The IC50 was 92.8 nM.

`CCOc1ccc2c(C(=O)c3cc(OC)c(OC)c(OC)c3)cncc2c1NC(=O)OCC(C)C` [Compound 113, Isobutyl (7-ethoxy-4-(3,4,5-trimethoxybenzoyl)isoquinolin-8-yl)carbamate hydrochloride] was tested. Which IC50 did it give?
Its IC50 is 231 nM.

`CCOc1ccc2c(Cc3cc(OC)c(OCC)c([N+](=O)[O-])c3)cncc2c1O` [Compound 74, 7-ethoxy-4-(4-ethoxy-3-methoxy-5-nitrobenzyl)isoquinolin-8-ol hydrochloride] was tested. Which IC50 did it give?
The IC50 was 238 nM.

How did the IC50 turn out when `CCCCCOc1c(OC)cc(Cc2cncc3c(O)c(OCC)ccc23)cc1OC` [Compound 63, 4-(3,5-Dimethoxy-4-(pentyloxy)benzyl)-7-ethoxyisoquinolin-8-ol hydrochloride] was run?
The IC50 was 213 nM.

With `CCOc1ccc2c(C(=O)c3cc(OC)c(OCC)c(OC)c3)cncc2c1OC` [Compound 47, (4-Ethoxy-3,5-dimethoxyphenyl)-(7-ethoxy-8-methoxyisoquinolin-4-yl)-methanone hydrochloride] as the compound, how does the IC50 read?
Its IC50 is 129 nM.

For `CCOc1ccc2c(Cc3cc(OC)c(OCC)c(OC)c3)cncc2c1` [Compound 13, 7-Ethoxy-4-(4-ethoxy-3,5-dimethoxybenzyl)isoquinoline hydrochloride], which IC50 is on record?
The IC50 was 349 nM.

With `CCOc1ccc2c(Cc3cc(OC)c(OC)c(OCC(F)(F)F)c3)cncc2c1O` [Compound 87, 4-(3,4-Dimethoxy-5-(2,2,2-trifluoroethoxy)benzyl)-7-ethoxyisoquinolin-8-ol hydrochloride] as the compound, how does the IC50 read?
The IC50 was 254 nM.

How did the IC50 turn out when `CCOc1ccc2c(Cc3cc(OC)c(OC)c(OC)c3)cncc2c1NC` [Compound 92, 7-Ethoxy-N-methyl-4-(3,4,5-trimethoxybenzyl)isoquinolin-8-amine dihydrochloride] was run?
Its IC50 is 943 nM.

`CCOc1ccc2c(C(=O)c3cc(Br)c(OC)c(OC)c3)cncc2c1O` [Compound 116, (3-Bromo-4,5-dimethoxyphenyl)(7-ethoxy-8-hydroxyisoquinolin-4-yl)methanone hydrochloride] was tested. Which IC50 did it give?
Its IC50 is 86.9 nM.

Which IC50 does the source give for `CCOc1ccc2c(Cc3cc(Br)c(OC)c(OC)c3)cncc2c1O` [Compound 71, 4-(3-Bromo-4,5-dimethoxybenzyl)-7-ethoxyisoquinolin-8-ol hydrochloride] here?
Its IC50 is 26 nM.

With `CCOc1ccc2c(Cc3cc(OC)c(Nc4ccccc4)c(OC)c3)cncc2c1O` [Compound 52, 4-(3,5-Dimethoxy-4-(phenylamino)benzyl)-7-ethoxyisoquinolin-8-ol hydrochloride] as the compound, how does the IC50 read?
The IC50 was 118 nM.

`CCOc1ccc2c(C(=O)c3cc(OC)c(OCC(C)C)c(OC)c3)cncc2c1O` [Compound 79, (7-Ethoxy-8-hydroxyisoquinolin-4-yl)(4-isobutoxy-3,5-dimethoxyphenyl)methanone hydrochloride] was tested. Which IC50 did it give?
Its IC50 is 12.1 nM.
